Molecular target: T1, CatSper channel (CatSper1) (Mus musculus, UniProt A2ARP9+Q80W99+Q8BVN3+Q91ZR5)
T1 construct: native channel in mouse sperm; with CatSper2, CatSper3, CatSper4
Assay: whole-sperm patch clamp of native CatSper currents; also SBFI and fura-2 photometry (abstract IC50 […] by optical assay)
Assay type: cell-based

T1 sequence (Q91ZR5 whole entry): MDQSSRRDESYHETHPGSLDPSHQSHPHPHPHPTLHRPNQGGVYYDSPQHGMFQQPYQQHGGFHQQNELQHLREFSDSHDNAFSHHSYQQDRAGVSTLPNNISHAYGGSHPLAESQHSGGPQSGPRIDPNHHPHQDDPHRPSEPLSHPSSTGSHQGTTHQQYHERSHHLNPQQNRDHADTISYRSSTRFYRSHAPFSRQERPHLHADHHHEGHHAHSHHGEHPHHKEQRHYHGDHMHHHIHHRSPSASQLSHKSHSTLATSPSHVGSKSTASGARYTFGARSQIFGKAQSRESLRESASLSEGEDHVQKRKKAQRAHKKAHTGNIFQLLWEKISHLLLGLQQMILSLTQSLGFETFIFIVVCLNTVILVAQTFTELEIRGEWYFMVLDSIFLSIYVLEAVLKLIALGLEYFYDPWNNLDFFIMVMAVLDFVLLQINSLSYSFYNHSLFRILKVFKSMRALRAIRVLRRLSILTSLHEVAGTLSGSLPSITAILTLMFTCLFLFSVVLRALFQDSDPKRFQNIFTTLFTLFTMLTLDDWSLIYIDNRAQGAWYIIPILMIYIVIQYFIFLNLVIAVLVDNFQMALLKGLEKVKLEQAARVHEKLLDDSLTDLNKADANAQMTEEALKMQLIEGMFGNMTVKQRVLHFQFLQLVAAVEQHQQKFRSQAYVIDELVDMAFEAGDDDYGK
T1 sequence (A2ARP9 whole entry): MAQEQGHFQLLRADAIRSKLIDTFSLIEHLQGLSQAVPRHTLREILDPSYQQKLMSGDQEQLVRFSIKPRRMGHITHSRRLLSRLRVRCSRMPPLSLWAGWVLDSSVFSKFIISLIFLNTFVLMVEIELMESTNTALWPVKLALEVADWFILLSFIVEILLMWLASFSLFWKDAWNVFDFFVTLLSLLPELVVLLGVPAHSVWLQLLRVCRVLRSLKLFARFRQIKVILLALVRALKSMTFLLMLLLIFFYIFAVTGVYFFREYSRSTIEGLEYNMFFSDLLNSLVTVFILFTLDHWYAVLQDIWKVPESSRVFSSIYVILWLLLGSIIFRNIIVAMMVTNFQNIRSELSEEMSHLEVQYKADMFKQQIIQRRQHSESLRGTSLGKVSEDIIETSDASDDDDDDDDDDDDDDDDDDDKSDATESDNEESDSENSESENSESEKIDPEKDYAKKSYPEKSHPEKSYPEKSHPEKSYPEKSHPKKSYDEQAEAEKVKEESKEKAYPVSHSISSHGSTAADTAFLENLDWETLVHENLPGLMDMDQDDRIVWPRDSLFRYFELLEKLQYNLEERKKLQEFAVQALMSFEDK
T1 sequence (Q80W99 whole entry): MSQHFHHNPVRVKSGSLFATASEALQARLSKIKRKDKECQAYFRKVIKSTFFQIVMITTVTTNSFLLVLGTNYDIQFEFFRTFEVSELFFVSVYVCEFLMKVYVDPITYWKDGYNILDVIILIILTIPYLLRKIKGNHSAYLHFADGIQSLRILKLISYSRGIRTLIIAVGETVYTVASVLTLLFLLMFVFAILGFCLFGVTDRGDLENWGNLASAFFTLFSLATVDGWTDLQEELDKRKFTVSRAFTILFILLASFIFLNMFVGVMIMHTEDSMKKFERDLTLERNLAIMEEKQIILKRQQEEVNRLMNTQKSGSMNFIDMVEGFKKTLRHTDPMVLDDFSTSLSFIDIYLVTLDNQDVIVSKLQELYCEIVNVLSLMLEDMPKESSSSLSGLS
T1 sequence (Q8BVN3 whole entry): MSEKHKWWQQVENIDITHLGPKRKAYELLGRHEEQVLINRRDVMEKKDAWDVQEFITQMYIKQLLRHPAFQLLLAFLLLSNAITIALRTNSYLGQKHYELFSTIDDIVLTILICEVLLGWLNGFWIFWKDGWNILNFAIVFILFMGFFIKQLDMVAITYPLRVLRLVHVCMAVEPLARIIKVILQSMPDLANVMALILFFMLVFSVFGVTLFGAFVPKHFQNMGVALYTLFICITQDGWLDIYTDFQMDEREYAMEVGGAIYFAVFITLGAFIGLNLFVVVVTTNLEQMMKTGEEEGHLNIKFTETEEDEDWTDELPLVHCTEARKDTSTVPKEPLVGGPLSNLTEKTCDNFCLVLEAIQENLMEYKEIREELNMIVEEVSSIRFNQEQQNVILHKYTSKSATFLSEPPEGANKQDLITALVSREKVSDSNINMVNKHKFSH

IC50: ~15 µM
SMILES: O=C(c1cccs1)c1no[n+]([O-])c1C(=O)c1cccs1 [HC-056456, 3,4-bis(2-thienylcarbonyl)-1,2,5-oxadiazole-2-ium-2-olate]

Source: PMC2729922, “Pharmacological Targeting of Native CatSper Channels Reveals a Required Role in Maintenance of Sperm Hyperactivation” (PLoS ONE, 2009)
